Columns and labels:
Assay type in all cases: cell-based
MDA-MB-468 = experiment: Cell viability after 72 hours treatment; details: MDA-MB-468 (TNBC)
Protocol: (§1) The effects on the different treatment conditions on BUB 1 levels and PARP cleavage were also assessed. For both MNA-MB-231 cells, Compound 1 alone or with HCQ or SBI decreased BUB1 levels and cleaved PARP with […] decreases in cell viability observed for all treatments except Compound 1+SBI in MMA-MB-231 cells. The effects of Compound 1 with or without autophagy inhibitors was less pronounced in HCC-1937 cells.

HCC-1937 = experiment: Cell viability after 72 hours treatment; details: HCC-1937 (TNBC)
Protocol: as §1

Caspase 3/7 [1] = experiment: Caspase 3/7 Glo assay, MDA-MB-231 cells, 24 hours
Protocol: To determine how Compound 1 induces cell death, Caspase 3/7 activity was measured using the Caspase 3/7 Glo assay.
The effect of zVAD-FMK treatment on Caspase 3/7 activity was assessed.

MDA-MB-231 cells [2] = experiment: MTT assay, 24 hours; details: zVAD-FMK 20 μM (FIG. 25)
Hs578T spheroids = experiment: CellTiter Glo 3D spheroid viability; details: 48 hours; Compound 1, Comparator 1, Comparator 2 5 μM; Comparator 4 10 μM
Protocol: Viability of the spheroids was assessed using CellTiter Glo 3D.

MDA-MB-231 cells [3] = experiment: Annexin V/PI staining followed by FACS, 24 hours; details: for cell death (Annexin V/PI): Compound 1, Comparator 1, 2 5 μM, Comparator 4 10 μM; for effect of zVAD-FMK on cell death, Annexin V/PI staining: zVAD-FMK 20 μM (FIG. 24)
Protocol: To determine the effect of the different treatment conditions on cell death, Annexin V/PI staining was performed.

[4] = tested on: T-47D, HCC-1937, HS-578T, BT-474, MDA-MB-468, and MD-MB-453 cell lines; experiment: MTT cell viability of breast cancer cell line panel versus comparators, 48 hrs (FIG. 17); details: Comparator 4 10 μM, Comparator 1 and 2 5 μM, Compound 1 2.5, 5.0, 10 μM
Caspase 3/7 [5] = experiment: Caspase 3/7 Glo assay with or without bafilomycin A1, MDA-MB-231 cells, 2 days; details: 5 μM
Source text: FIGS. 34 and 35 show Caspase 3/7 activity as measured by the Caspase 3/7 Glo assay. […] The effect was enhanced by co-treatment with bafilomycin A1 cotreatment.

[6] = Compound 1, Comparator 1, 2 5 μM, Comparator 4 10 μM (FIG. 22)
[7] = without zVAD-FMK, relative to DMSO (FIG. 26)

Row | SMILES | 72 h-cell viability decrease (MDA-MB-468) | 72 h-cell viability decrease (HCC-1937) | Caspase 3/7 activity (Caspase 3/7 [1]; [6]) | Caspase 3/7 activity (Caspase 3/7 [1]; [7]) | effect of zVAD-FMK on cell death, MTT assay (MDA-MB-231 cells [2]) | decrease in organoid viability compared to DMSO (Hs578T spheroids) | cell death (Annexin V/PI) (MDA-MB-231 cells [3]) | effect of zVAD-FMK on cell death, Annexin V/PI staining (MDA-MB-231 cells [3]) | effect of zVAD-FMK on induced Caspase 3/7 activity (Caspase 3/7 [1]; zVAD-FMK 20 μM (FIG. 26)) | cell death (MTT), comparison of treatments [4] | Caspase 3/7 activity, compound alone (Caspase 3/7 [5])
1 | CCN1CCN(Cc2ccc(Nc3ncc(F)c(-c4cc(F)c5nc(C)n(C(C)C)c5c4)n3)nc2)CC1 [Comparator 3, abemaciclib] | 50% | 10% |  |  |  |  |  |  |  |  | 
2 | CN(C)C(=O)c1cc2cnc(Nc3ccc(N4CCNCC4)cn3)nc2n1C1CCCC1 [Comparator 2, ribociclib] |  |  | no effect | not increased | similarly unaffected | no effect | neither Comparator 1 nor Comparator 2 treatment induced cell death | similarly unaffected |  |  | 
3 | CC(C)C[C@H](NC(=O)[C@H](Cc1ccccc1)NC(=O)c1cnccn1)B(O)O [Comparator 4, bortezomib] |  |  | greatest increase | large increase | partially blocked | significant cell death | ~55% | partially blocked | completely inhibited | induced cell death to the greatest extent | 
4 | CC(=O)c1c(C)c2cnc(Nc3ccc(N4CCNCC4)cn3)nc2n(C2CCCC2)c1=O [Comparator 1, palbociclib] | 10% | 15% | no effect |  |  | no effect |  |  |  |  | no effect

Source: patent US20260183295A1, “METHODS AND COMPOSITIONS FOR TREATING CANCER” (Onconova Therapeutics, Inc., priority 2022, published 2026)
